Source: article PMC9428149, “Tackling recalcitrant Pseudomonas aeruginosa infections in critical illness via anti-virulence monotherapy” (Nature Communications, 2022)
pIC50: −log10 of the molar value. ≈ marks a conversion by molar mass, not a printed value. Where “and” joins values, the source holds several entries; their conditions need not be identical. Equal values may be shown once. Read-outs that look alike come from different tables or passages of the source.

Key:
[1] = tested on: pqsA promoter (PA14 PpqsA-GFPASV); test: pqsA-GFP reporter expression; assay type: cell-based, Pseudomonas aeruginosa
[2] = tested on: PA14 AT/P cells; test: AT/P cells formation assay in PA14; assay type: cell-based, Pseudomonas aeruginosa; details: Pseudomonas aeruginosa, PA14, 24 h, read-out: inhibition of AT/P cells formation
[3] = target: T1, MvfR protein (MvfRC87) (Pseudomonas aeruginosa, UniProt Q9I4X0); assay type: binding; details: SPR
T1 construct: The MvfRC87 protein purified as in Xiao et. al., 2006; made in house
Description: The selected compounds were tested for their ability to bind to MvfR. Target validation was carried out by using surface plasmon resonance (SPR). The MvfRC87 protein purified as in Xiao et. al., 2006[33] was covalently immobilized on a CM7 Series S sensor chip using an amine coupling reagent kit (GE Healthcare) at the range level of 3000 to 5000 response units (RU). RU was analyzed by Biacore T200 evaluation software 2.0 (GE Healthcare). The relative response units (RUs) 5 seconds before the end of the association were extracted from the double-reference-corrected sensor grams at different concentrations. These responses were plotted against their respective concentrations for MvfR inhibitor alone and in the presence of native MvfR ligand PQS and compared to the calculated responses for the mixture expected for different binding sites.

[4] = Solubility in iPBS pH 7.4 by HPLC; assay type: physicochemical; details: isotonic phosphate buffer (iPBS)
Description: Solubility of the 10 mM compounds dissolved in DMSO was tested in the isotonic phosphate buffer (iPBS) at pH 7.4 using High-Performance Liquid Chromatography (HPLC). For the preparation of iPBS phosphate-buffered saline tab (Sigma-Aldrich 08057-12Tab-F) is dissolved in 500 mL of deionized water and the final composition of the solution contains 10 mM PBS, 2.7 mM KCl, 140 mM NaCl and 0.05% Tween. A total 10 µL of the compound from a 10 mM stock solution in DMSO was added to the vial, and 190 µL of buffer was added to each vial and mixed with shaking at room temperature for 4 h. Thereafter the samples were filtered, and 160 µL of the sample was mixed with 40 µL of DMSO for the final injection. Ibuprofen (high solubility) and Progesterone (low Solubility) were used as standard compounds. Ammonium Acetate aqueous solution (50 mM, pH 7.4) and the acetonitrile were used as mobile phases A and B, respectively. The measurement of concentration was achieved by comparing of UV absorbance of the sample solution and the known standard solution following an HPLC separation using a generic fast gradient method. The solubility of each compound is expressed by the ratio of compound amount in the sample test solution to the amount of compound in the standard solution.

[5] = tested on: pyocyanin production in PA14; test: Pyocyanin production assay; details: Pseudomonas aeruginosa
Description: The over-day culture was grown to OD600nm 1.5., diluted again at 1:10,000 in 5 mL LB and incubated with 10 μM of the test compound or the vehicle control for 18 hours at 37 °C and 200 rpm in an incubator shaker. After 18 h, 1 mL of culture was centrifuged for 2 min at 20.000 x g. The supernatant was transferred to a new tube, 200 μL of this were loaded in a flat-bottom 96-well plate, and the pyocyanin levels were quantified by measuring at OD690nm in the infinite F200 plate reader using the Magellan software (Tecan, Switzerland). […] The percent of pyocyanin was calculated compared to the PA14 culture grown in the absence of compounds.
To determine the IC50 of pyocyanin production, we followed the same process as above. […] Using GraphPad Prism Software, the IC50 curve was plotted against percent inhibition of pyocyanin production at each concentration using PA14 in the absence of compounds as a control.

[6] = tested on: 16 MDR P. aeruginosa clinical isolates; test: Pyocyanin production in MDR clinical isolates; details: Pseudomonas aeruginosa, 18 h, Control about 100, replicates
Description: The over-day culture was grown to OD600nm 1.5., diluted again at 1:10,000 in 5 mL LB and incubated with 10 μM of the test compound or the vehicle control for 18 hours at 37 °C and 200 rpm in an incubator shaker. After 18 h, 1 mL of culture was centrifuged for 2 min at 20.000 x g. The supernatant was transferred to a new tube, 200 μL of this were loaded in a flat-bottom 96-well plate, and the pyocyanin levels were quantified by measuring at OD690nm in the infinite F200 plate reader using the Magellan software (Tecan, Switzerland). The same procedure was also followed for the pyocyanin production assessment for all the P. aeruginosa clinical isolates assessed in this study. The percent of pyocyanin was calculated compared to the PA14 culture grown in the absence of compounds.
Pyocyanin production was measured in 16 P.
aeruginosa clinical isolates 18hr post-growth in the presence or absence of 10 µM of each NAM
compound. The percent of pyocyanin production was calculated by comparing the same strain grown
in the presence of the vehicle control. b.

[7] = tested on: ΔmvfR biofilm; test: Biofilm formation of ΔmvfR mutant (off-target); details: Pseudomonas aeruginosa, PA14, 24 h, read-out: Biofilm formation, ΔmvfR + compound; PA14 about 100; single replicates (Figure 4c)
Description: Biofilm was grown in the 96-well microtiter plate at 37 °C for 24 h containing M63 minimal media in the presence of 10 µM of the compounds or vehicle. The biofilm grown with the vehicle was considered as a control. The percentage value was calculated in comparison to the PA14 control. a–c Data represent at least n = 3, each dot on the graph represents one biological replicate. The number of biological replicates for each compound and strain is depicted in the graph. The error bars denote ±SEM.
The overnight grown starter culture was diluted 1:1000 in 5 mL LB media in a glass tube and was incubated at 37 °C and 200 rpm in an incubator shaker until the culture reached an OD600nm 3.0. The culture was then diluted at 1:100 in M63 minimal media supplemented with 0.2% glucose, 0.5% Casamino Acids, and 1 mM MgSO4. Initiation of the Biofilm formation was performed in the 96 well plates; 200 µL of diluted culture was added in the wells with (10 µM) or without compounds. The cultures were allowed to grow at 37 °C in static conditions for 24 hours. Thereafter, planktonic culture was removed from the wells, and wells were washed three times with distilled water (DW). Biofilm was stained with 0.1% crystal violet and incubated for 15 min at room temperature (RT). Access dye was removed from the wells and washed off three times with DW, and 200 µL ethanol: acetone (80:20) was added to the wells. The plate was incubated for 30 min at RT, and the OD was measured by spectrophotometry at 570 nm in the infinite F200 plate reader using the Magellan software (Tecan, Switzerland). Percent biofilm formation was calculated in comparison to PA14 culture that was grown in the absence of compounds.

[8] = tested on: PA14 isogenic mutant ΔmvfR AT/P cells; test: AT/P cell formation in ΔmvfR mutant (off-target); details: Pseudomonas aeruginosa, PA14, 24 h, read-out: AT/P cell formation, ΔmvfR + compound; PA14 about 100; single replicates (Figure 4b)
Description: Cells were grown in the presence of 10 μg mL^−1 meropenem, with or without 10 µM of the compounds for 24 h. Values were normalized to cells grown for 4 h in the absence of antibiotics and compounds. The ∆mvfR cells grown with antibiotics and vehicles were considered control, and the percentage values were calculated compared to control. c Biofilm formation of mutant ∆mvfR cells with or without compound. […] The number of biological replicates for each compound and strain is depicted in the graph. The error bars denote ±SEM.
The AT/P cell formation assay was performed according to the method previously described in Starkey et al., 2014 (persister cell assay). The over-day culture was incubated at 37 °C with shaking at 200 rpm until the culture OD600nm was 3.0. The culture was then diluted at 1:100 and grown in the same conditions for 4 h. After 4 h, 200 µL were collected, and serial dilutions were plated on LB agar plates for CFU quantification (as normalizers). The remainder of the culture was treated with meropenem to a final concentration of 100 × MIC (Minimum Inhibitory Concentration; 10 mg L^−1) and compounds at a final concentration of 10 µM. After 24 h, culture aliquots were 10-fold serially diluted in LB broth and plated on LB agar for CFU quantification. The AT/P fraction was determined as the normalizers (pre-antibiotic) ratio divided by the AT/P fraction (24 h post-antibiotic)[22].

[9] = tested on: MvfR-regulated small molecules in PA14; test: Production of HAQs, 2-AA, DHQ and AA in PA14 cultures (LC-MS); details: Figure 5a, replicates

T1 sequence (Q9I4X0 87-332): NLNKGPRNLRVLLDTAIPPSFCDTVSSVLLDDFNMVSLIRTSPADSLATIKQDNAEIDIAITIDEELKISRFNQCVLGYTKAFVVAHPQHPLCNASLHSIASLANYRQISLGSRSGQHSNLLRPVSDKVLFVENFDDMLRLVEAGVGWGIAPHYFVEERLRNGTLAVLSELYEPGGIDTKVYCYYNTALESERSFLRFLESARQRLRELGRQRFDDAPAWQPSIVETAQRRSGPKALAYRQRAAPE

**Q.** For N#Cc1ccc(NC(=O)C(F)C(=O)Nc2ccc(Oc3ccccc3)cc2)cc1 (centres unmarked) [D88], which activity at 50 µM ([1]; Pseudomonas aeruginosa, PA14, read-out: % Production pqsA-GFP) is on record?
**A.** 2%

**Q.** And the pIC50 ([1]; Pseudomonas aeruginosa, PA14, read-out: IC50 pqsA-GFP expression, PA14, 13 concentrations)?
**A.** 5.87

**Q.** What about the pIC50 ([1]; read-out: IC50 pqsA-GFP expression, PA14, 13 concentrations) of the same compound?
**A.** 5.88

**Q.** What about the inhibition at 10 µM [2] of the same compound?
**A.** ≥ 76%

**Q.** What about the “Response Unit (RU)” value ([3]; Concentration 1.00E-05 M) of the same compound?
**A.** 36.6 RU

**Q.** What about the “Response Unit (RU)” value ([3]; Concentration 1.00E-06 M) of the same compound?
**A.** 18.2 RU

**Q.** And the “Response Unit (RU)” value ([3]; Concentration 1.00E-07 M)?
**A.** 5.5 RU

**Q.** And the “Response Unit (RU)” value ([3]; Concentration 1.00E-08 M)?
**A.** 0.4 RU

**Q.** What about the “Response Unit (RU)” value ([3]; Concentration 3.16E-06 M) of the same compound?
**A.** 28.1 RU

**Q.** And the “Response Unit (RU)” value ([3]; Concentration 3.16E-07 M)?
**A.** 10.5 RU

**Q.** What about the “Response Unit (RU)” value ([3]; Concentration 3.16E-08 M) of the same compound?
**A.** 2.3 RU

**Q.** And the solubility at 4 h ([4]; aqueous with cosolvent or surfactant or cyclodextrin, kinetic from dmso stock, iPBS pH 7.4, HPLC, read-out: Solubility (M) in PBS)?
**A.** 0.00049 M (≈ 191 µg/mL)

**Q.** What about the solubility at 4 h ([4]; pH 7.4, HPLC, read-out: solubility) of the same compound?
**A.** 0.00049 M (≈ 191 µg/mL)

**Q.** What about the activity at 50 µM ([5]; PA14, 18 h, read-out: % Production Pyocyanin) of the same compound?
**A.** 6%

**Q.** And the pIC50 ([5]; PA14, read-out: IC50 pyocyanin production)?
**A.** 6.28

**Q.** And the activity at 10 µM ([6]; read-out: Pyocyanin production relative to Control, clinical isolate LGR-4325)?
**A.** 17.1%

**Q.** What about the activity at 10 µM ([6]; read-out: Pyocyanin production relative to Control, clinical isolate LGR-4326) of the same compound?
**A.** 8.91%

**Q.** And the activity at 10 µM ([6]; read-out: Pyocyanin production relative to Control, clinical isolate LGR-4327)?
**A.** 8.23%

**Q.** And the activity at 10 µM ([6]; read-out: Pyocyanin production relative to Control, clinical isolate LGR-4328)?
**A.** 27.7%

**Q.** And the activity at 10 µM ([6]; read-out: Pyocyanin production relative to Control, clinical isolate LGR-4330)?
**A.** 33.3%

**Q.** And the activity at 10 µM ([6]; read-out: Pyocyanin production relative to Control, clinical isolate LGR-4331 (first section, r117))?
**A.** 12.7%

**Q.** And the activity at 10 µM ([6]; read-out: Pyocyanin production relative to Control, clinical isolate LGR-4331 (second section, r140))?
**A.** 5.55%

**Q.** And the activity at 10 µM ([6]; read-out: Pyocyanin production relative to Control, clinical isolate LGR-4333)?
**A.** 10.5%

**Q.** What about the activity at 10 µM ([6]; read-out: Pyocyanin production relative to Control, clinical isolate LGR-4343) of the same compound?
**A.** 12.2%

**Q.** What about the activity at 10 µM ([6]; read-out: Pyocyanin production relative to Control, clinical isolate LGR-4344) of the same compound?
**A.** 12.7%

**Q.** And the activity at 10 µM ([6]; read-out: Pyocyanin production relative to Control, clinical isolate LGR-4348)?
**A.** 8.7%

**Q.** What about the activity at 10 µM ([6]; read-out: Pyocyanin production relative to Control, clinical isolate LGR-4356) of the same compound?
**A.** 10.8%

**Q.** What about the activity at 10 µM ([6]; read-out: Pyocyanin production relative to Control, clinical isolate LGR-4362) of the same compound?
**A.** 13.9%

**Q.** And the activity at 10 µM ([6]; read-out: Pyocyanin production relative to Control, clinical isolate LGR-4363)?
**A.** 17.7%

**Q.** What about the activity at 10 µM ([6]; read-out: Pyocyanin production relative to Control, clinical isolate LGR-4364 (first section, r326)) of the same compound?
**A.** 17.2%

**Q.** And the activity at 10 µM ([6]; read-out: Pyocyanin production relative to Control, clinical isolate LGR-4364 (second section, r349))?
**A.** 19.4%

**Q.** What about the activity at 10 µM [7] of the same compound?
**A.** 43.6%

**Q.** And the activity at 10 µM [8]?
**A.** 34.2%

**Q.** And the 2-AA ([9]; Compound 4.88e-8 M)?
**A.** 20.87 and 7.96 and 12.86

**Q.** What about the DHQ ([9]; Compound 4.88e-8 M) of the same compound?
**A.** 15.28 and 24.13 and 25.25

**Q.** And the HHQ ([9]; Compound 4.88e-8 M)?
**A.** -10.38 and -9.83 and -4.34

**Q.** And the HQNO ([9]; Compound 4.88e-8 M)?
**A.** 23.03 and 20.64 and 19.09

**Q.** And the 2-AA ([9]; Compound 9.77e-8 M)?
**A.** 21.63 and 8.61 and -0.13

**Q.** And the DHQ ([9]; Compound 9.77e-8 M)?
**A.** 23.53 and 26.23 and 29.13

**Q.** And the HHQ ([9]; Compound 9.77e-8 M)?
**A.** 0.19 and 2.23 and -9.33

**Q.** What about the HQNO ([9]; Compound 9.77e-8 M) of the same compound?
**A.** 18.24 and 19.63 and 16.60

**Q.** And the PQS ([9]; Compound 9.77e-8 M)?
**A.** 1.00 and -2.02 and -4.38

**Q.** What about the 2-AA ([9]; Compound 1.95e-7 M) of the same compound?
**A.** 4.17 and 23.60 and 8.88

**Q.** And the DHQ ([9]; Compound 1.95e-7 M)?
**A.** 24.27 and 28.60 and 33.04

**Q.** And the HHQ ([9]; Compound 1.95e-7 M)?
**A.** -0.13 and 9.98 and 9.62

**Q.** What about the HQNO ([9]; Compound 1.95e-7 M) of the same compound?
**A.** 22.51 and 25.08 and 21.13

**Q.** And the 2-AA ([9]; Compound 3.91e-7 M)?
**A.** 26.65 and 26.00 and 18.02

**Q.** And the DHQ ([9]; Compound 3.91e-7 M)?
**A.** 19.73 and 32.57 and 33.17

**Q.** What about the HHQ ([9]; Compound 3.91e-7 M) of the same compound?
**A.** 5.11 and 8.17 and 11.07

**Q.** And the HQNO ([9]; Compound 3.91e-7 M)?
**A.** 30.53 and 30.32 and 29.72

**Q.** And the PQS ([9]; Compound 3.91e-7 M)?
**A.** -1.07 and -0.58 and 0.13

**Q.** What about the 2-AA ([9]; Compound 7.81e-7 M) of the same compound?
**A.** 26.65 and 26.00 and 18.02

**Q.** And the DHQ ([9]; Compound 7.81e-7 M)?
**A.** 19.73 and 32.57 and 33.17

**Q.** What about the HHQ ([9]; Compound 7.81e-7 M) of the same compound?
**A.** 5.11 and 8.17 and 11.07

**Q.** And the HQNO ([9]; Compound 7.81e-7 M)?
**A.** 30.53 and 30.32 and 29.72

**Q.** What about the PQS ([9]; Compound 7.81e-7 M) of the same compound?
**A.** -1.07 and -0.58 and 0.13
